Test results as given in US11534457B2, “Use of dextran sulfate” (priority 2017, dated 2022).

Test system: severe traumatic brain injury (sTBI)
Assay: sTBI in rats, brain gene expression arrays and pathway analysis (Example 9)
Type: in vivo, Male Wistar rats
Procedure: The experimental protocol used in this study was approved by the Ethical Committee of the Catholic University of Rome, according to international standards and guidelines for animal care. Male Wistar rats of 300-350 g body weight were fed with standard laboratory diet and water ad libitum in a controlled environment. As the anesthetic mixture, the animals received 35 mg/kg b.w. ketamine and 0.25 mg/kg body weight midazolam by i.p. injection. Severe traumatic brain injury (sTBI) was induced by dropping a 450 g weight from 2 m height on to the rat head that had been protected by a metal disk previously fixed on the skull, according to the “weight drop” impact acceleration model (Marmarou et al., A new model of diffuse brain injury in rats. Part I: Pathophysiology and biomechanics. J Neurosurg. 1994; 80: 291-300). […] At the end of each period of treatment, rats were anesthetized again and then immediately sacrificed.
LMW-DS (Tikomed AB) was provided at a stock concentration of 20 mg/ml and was kept in a temperature-monitored refrigerator at 4° C. LMW-DS aliquots were diluted to the appropriate dosing concentration in sterile saline prior to delivery of a single subcutaneous injection.
Three doses of LMW-DS were administered subcutaneously 30 minutes post-TBI. The animals were sacrificed at 2 days post-TBI. The animals were divided into the following subgroups:
Three doses of LMW-DS were administered subcutaneously 30 minutes post-TBI. The animals were sacrificed at 7 days post-TBI. The animals were divided into the following subgroups:
An in vivo craniectomy was performed on all animals during anesthesia. After carefully removing the rat's skull, the brain was exposed and removed with a surgical spatula and quickly dropped in RNALater and preserved at 4° C. for further processing.
RNA extraction and array processing was carried out by SourceBioscience. The arrays used were the Agilent Rat expression arrays.
Statistical analysis was carried out using the Metaboanalyst software package. Gene expression changes of 10% with a p<0.05 were regarded as significant.
Pathway analysis of the differentially regulated genes was carried out using the Ingenuity pathway analysis package. The analysis was performed with special reference to pathways and molecular processes and diseases associated with neurodegenerative disease, including dementia, Alzheimer's disease, ALS, TBI and stroke, and with scarring and fibrosis, including glaucoma and normal pressure hydrocephalus (NPH) after subarachnoid haemorrhage.

[1] = TBI + 1 mg/kg LMW-DS, 2 days after TBI
[2] = TBI + 1 mg/kg LMW-DS, 7 days after TBI
[3] = TBI + 1 mg/kg LMW-DS, 7 days after TBI, relative to control
[4] = TBI + 1 mg/kg LMW-DS, after 7 days, TBI: Activated
[5] = TBI + 1 mg/kg LMW-DS, after 7 days, TBI: Inhibited
[6] = TBI + 5 mg/kg LMW-DS, 2 days after TBI

Q: For “low molecular weight dextran sulfate [LMW-DS]”, which “Diseases or functions annotation: Migration of cells” value [1] is on record?
A: Activated

Q: And the “Diseases or functions annotation: Necrosis” value [1]?
A: Inhibited

Q: What about the “Diseases or functions annotation: Non-hematologic malignant neoplasm” value [1] of the same substance?
A: Inhibited

Q: What about the “Diseases or functions annotation: Pelvic tumor” value [1] of the same substance?
A: Inhibited

Q: What about the “Diseases or functions annotation: Proliferation of blood cells” value [1] of the same substance?
A: Inhibited

Q: And the “Diseases or functions annotation: Proliferation of lymphatic system cells” value [1]?
A: Inhibited

Q: And the “Diseases or functions annotation: Proliferation of lymphocytes” value [1]?
A: Inhibited

Q: And the “Diseases or functions annotation: Quantity of blood cells” value [1]?
A: Inhibited

Q: And the “Diseases or functions annotation: Quantity of bone” value [1]?
A: Inhibited

Q: What about the “Diseases or functions annotation: Quantity of cells” value [1] of the same substance?
A: Inhibited

Q: What about the “Diseases or functions annotation: Quantity of connective tissue cells” value [1] of the same substance?
A: Activated

Q: What about the “Diseases or functions annotation: Quantity of leukocytes” value [1] of the same substance?
A: Inhibited

Q: And the “Diseases or functions annotation: Quantity of lymphatic system cells” value [1]?
A: Inhibited

Q: And the “Diseases or functions annotation: Quantity of phagocytes” value [1]?
A: Inhibited

Q: And the “Diseases or functions annotation: Rheumatic Disease” value [1]?
A: Inhibited

Q: And the “Diseases or functions annotation: Solid tumor” value [1]?
A: Inhibited

Q: What about the “Diseases or functions annotation: Survival of organism” value [1] of the same substance?
A: Inhibited

Q: What about the “Diseases or functions annotation: Synthesis of hormone” value [1] of the same substance?
A: Activated

Q: What about the “Diseases or functions annotation: Thrombus” value [1] of the same substance?
A: Activated

Q: What about the “Diseases or functions annotation: Transport of molecule” value [1] of the same substance?
A: Activated

Q: What about the “Ingenuity canonical pathway: Adrenomedullin signaling pathway” value [2] of the same substance?
A: Inhibited

Q: What about the “Ingenuity canonical pathway: ERK5 Signaling” value [2] of the same substance?
A: Inhibited

Q: And the “Ingenuity canonical pathway: Endothelin-1 Signaling” value [2]?
A: Activated

Q: What about the “Ingenuity canonical pathway: G Beta Gamma Signaling” value [2] of the same substance?
A: Activated

Q: And the “Ingenuity canonical pathway: NF-κB Signaling” value [2]?
A: Inhibited

Q: What about the “Ingenuity canonical pathway: Opioid Signaling Pathway” value [2] of the same substance?
A: Inhibited

Q: And the “Ingenuity canonical pathway: Role of NFAT in Regulation of the Immune Response” value [2]?
A: Activated

Q: What about the “Ingenuity canonical pathway: Synaptic Long Term Depression” value [2] of the same substance?
A: Activated

Q: And the “z score: Abdominal cancer” value [2]?
A: −2.426

Q: And the “z score: Abdominal carcinoma” value [2]?
A: −1.987

Q: What about the “z score: Cell movement” value [2] of the same substance?
A: −1.01

Q: What about the “z score: Cell viability” value [2] of the same substance?
A: −1.584

Q: What about the “z score: Concentration of hormone” value [2] of the same substance?
A: −0.32

Q: And the “z score: Development of connective tissue cells” value [2]?
A: −0.005

Q: And the “z score: Development of malignant tumor” value [2]?
A: −1.326

Q: And the “z score: Developmental process of synapse” value [2]?
A: −0.152

Q: What about the “z score: Differentiation of bone cells” value [2] of the same substance?
A: −1.799

Q: And the “z score: Differentiation of connective tissue cells” value [2]?
A: −0.349

Q: And the “z score: Digestive organ tumor” value [2]?
A: −1.396

Q: And the “z score: Digestive system cancer” value [2]?
A: −1.96

Q: And the “z score: Epithelial neoplasm” value [2]?
A: −1.313

Q: What about the “z score: Formation of plasma membrane” value [2] of the same substance?
A: −0.152

Q: What about the “z score: Frequency of tumor” value [2] of the same substance?
A: −2.128

Q: And the “z score: Gastrointestinal tumor” value [2]?
A: −1.029

Q: What about the “z score: Hematologic cancer” value [2] of the same substance?
A: −1.067

Q: What about the “z score: Hematopoietic neoplasm” value [2] of the same substance?
A: −0.686

Q: What about the “z score: Incidence of tumor” value [2] of the same substance?
A: −1.614

Q: And the “z score: Large intestine neoplasm” value [2]?
A: −1.192

Q: And the “z score: Liver tumor” value [2]?
A: −1.91

Q: What about the “z score: Malignant genitourinary solid tumor” value [2] of the same substance?
A: −0.537

Q: And the “z score: Metabolism of hormone” value [2]?
A: −1.066

Q: What about the “z score: Pelvic tumor” value [2] of the same substance?
A: −1.214

Q: And the “z score: Quantity of Ca^2+” value [2]?
A: −0.11

Q: What about the “z score: Quantity of carbohydrate” value [2] of the same substance?
A: 0.49

Q: And the “z score: Quantity of metal” value [2]?
A: 0.415

Q: What about the “z score: Synthesis of lipid” value [2] of the same substance?
A: 0.033

Q: And the “z score: Tumorigenesis of epithelial neoplasm” value [2]?
A: −1.981

Q: What about the “z score: Tumorigenesis of tissue” value [2] of the same substance?
A: −0.998

Q: What about the “z score: Vaso-occlusion” value [2] of the same substance?
A: 1.264

Q: And the “z score: Weight gain” value [2]?
A: 0.625

Q: What about the “Ingenuity canonical pathway Adrenomedullin signaling pathway, z score” value [3] of the same substance?
A: −1

Q: What about the “Ingenuity canonical pathway ERK5 Signaling, z score” value [3] of the same substance?
A: −2

Q: What about the “Ingenuity canonical pathway Endothelin-1 Signaling, z score” value [3] of the same substance?
A: 1.342

Q: What about the “Ingenuity canonical pathway G Beta Gamma Signaling, z score” value [3] of the same substance?
A: 1

Q: What about the “Ingenuity canonical pathway NF-κB Signaling, z score” value [3] of the same substance?
A: −0.447

Q: What about the “Ingenuity canonical pathway Opioid Signaling Pathway, z score” value [3] of the same substance?
A: −0.447

Q: And the “Ingenuity canonical pathway Role of NFAT in Regulation of the Immune Response, z score” value [3]?
A: 0.816

Q: And the “Ingenuity canonical pathway Synaptic Long Term Depression, z score” value [3]?
A: 1.342

Q: And the “Ingenuity canonical pathway mTOR Signaling, z score” value [3]?
A: 1

Q: And the “Diseases or functions annotation: Development of malignant tumor” value [4]?
A: Inhibited

Q: What about the “Diseases or functions annotation: Digestive organ tumor” value [4] of the same substance?
A: Inhibited

Q: What about the “Diseases or functions annotation: Frequency of tumor” value [4] of the same substance?
A: Inhibited

Q: What about the “Diseases or functions annotation: Gastrointestinal tumor” value [4] of the same substance?
A: Inhibited

Q: What about the “Diseases or functions annotation: Hematologic cancer” value [4] of the same substance?
A: Inhibited

Q: And the “Diseases or functions annotation: Hematopoietic neoplasm” value [4]?
A: Inhibited

Q: And the “Diseases or functions annotation: Incidence of tumor” value [4]?
A: Inhibited

Q: And the “Diseases or functions annotation: Large intestine neoplasm” value [4]?
A: Inhibited

Q: And the “Diseases or functions annotation: Vaso-occlusion” value [4]?
A: Activated

Q: And the “Diseases or functions annotation: Abdominal cancer” value [5]?
A: Inhibited

Q: What about the “Diseases or functions annotation: Abdominal carcinoma” value [5] of the same substance?
A: Inhibited

Q: And the “Diseases or functions annotation: Cell movement” value [5]?
A: Inhibited

Q: And the “Diseases or functions annotation: Cell viability” value [5]?
A: Inhibited

Q: What about the “Diseases or functions annotation: Concentration of hormone” value [5] of the same substance?
A: Inhibited

Q: And the “Diseases or functions annotation: Development of connective tissue cells” value [5]?
A: Inhibited

Q: And the “Diseases or functions annotation: Developmental process of synapse” value [5]?
A: Inhibited

Q: And the “Diseases or functions annotation: Differentiation of bone cells” value [5]?
A: Inhibited

Q: And the “Diseases or functions annotation: Differentiation of connective tissue cells” value [5]?
A: Inhibited

Q: What about the “Diseases or functions annotation: Digestive system cancer” value [5] of the same substance?
A: Inhibited

Q: What about the “Diseases or functions annotation: Epithelial neoplasm” value [5] of the same substance?
A: Inhibited

Q: What about the “Diseases or functions annotation: Formation of plasma membrane” value [5] of the same substance?
A: Inhibited

Q: What about the “Diseases or functions annotation: Liver tumor” value [5] of the same substance?
A: Inhibited

Q: What about the “Diseases or functions annotation: Malignant genitourinary solid tumor” value [5] of the same substance?
A: Inhibited

Q: What about the “Diseases or functions annotation: Metabolism of hormone” value [5] of the same substance?
A: Inhibited

Q: What about the “Diseases or functions annotation: Pelvic tumor” value [5] of the same substance?
A: Inhibited

Q: What about the “Diseases or functions annotation: Quantity of Ca^2+” value [5] of the same substance?
A: Inhibited

Q: And the “Diseases or functions annotation: Quantity of carbohydrate” value [5]?
A: Activated

Q: And the “Diseases or functions annotation: Quantity of metal” value [5]?
A: Activated

Q: And the “Diseases or functions annotation: Synthesis of lipid” value [5]?
A: Activated

Q: And the “Diseases or functions annotation: Tumorigenesis of epithelial neoplasm” value [5]?
A: Inhibited

Q: And the “Diseases or functions annotation: Tumorigenesis of tissue” value [5]?
A: Inhibited

Q: What about the “Diseases or functions annotation: Weight gain” value [5] of the same substance?
A: Activated

Q: And the “Diseases or functions annotation: Abdominal cancer” value [6]?
A: Inhibited

Q: What about the “Diseases or functions annotation: Abdominal carcinoma” value [6] of the same substance?
A: Inhibited

Q: And the “Diseases or functions annotation: Abdominal neoplasm” value [6]?
A: Inhibited
